# Experiments:
# Assay in all cases: relative viability (nuclei count vs DMSO), 5 days (fraction); higher = more cells survive
# Sulindac + AZD7762 = compound: CC1=C(CC(=O)O)c2cc(F)ccc2/C1=C\c1ccc([S+](C)[O-])cc1 [Sulindac] + NC(=O)Nc1cc(-c2cccc(F)c2)sc1C(=O)N[C@H]1CCCNC1 [AZD7762] (partner 0.2 µM)
# How it was run: (§1)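 Values are medians from duplicate plates. Each reflects relative viability, defined as the nuclei count of treated wells over that of vehicle wells. Lung cancer cell lines in 1536-well plates were pin-tool dosed one day after seeding with one drug alone or with a fixed anchor-drug dose plus five library-drug doses (not always all listed) in √10 steps, then fixed, stained and imaged at 4× after 5 days.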
# [1] = compound: O=c1[nH]cc(F)c(=O)[nH]1 [5-Fluorouracil] + CC(=O)Nc1cccc(-n2c(=O)n(C3CC3)c(=O)c3c(Nc4ccc(I)cc4F)n(C)c(=O)c(C)c32)c1 [Trametinib] (partner 0.02 µM)
# How it was run: as §1
# Sulindac + Pemetrexed = compound: CC1=C(CC(=O)O)c2cc(F)ccc2/C1=C\c1ccc([S+](C)[O-])cc1 [Sulindac] + Nc1nc2[nH]cc(CCc3ccc(C(=O)N[C@@H](CCC(=O)O)C(=O)O)cc3)c2c(=O)[nH]1 [Pemetrexed] (partner 0.2 µM)
# How it was run: as §1
# Sulindac + Decitabine = compound: CC1=C(CC(=O)O)c2cc(F)ccc2/C1=C\c1ccc([S+](C)[O-])cc1 [Sulindac] + Nc1ncn([C@H]2C[C@H](O)[C@@H](CO)O2)c(=O)n1 [Decitabine] (partner 2 µM)
# How it was run: as §1
Cell Line,relative viability (Sulindac + AZD7762; first compound 0.08 µM),relative viability (Sulindac + AZD7762; first compound 0.253 µM),relative viability (Sulindac + AZD7762; first compound 0.8 µM),relative viability (Sulindac + AZD7762; first compound 2.53 µM),relative viability (Sulindac + AZD7762; first compound 8 µM),relative viability ([1]; first compound 0.02 µM),relative viability ([1]; first compound 0.2 µM),relative viability ([1]; first compound 0.6325 µM),relative viability ([1]; first compound 2 µM),relative viability (Sulindac + Pemetrexed; first compound 0.08 µM),relative viability (Sulindac + Pemetrexed; first compound 0.253 µM),relative viability (Sulindac + Pemetrexed; first compound 0.8 µM),relative viability (Sulindac + Pemetrexed; first compound 2.53 µM),relative viability (Sulindac + Pemetrexed; first compound 8 µM),relative viability (Sulindac + Decitabine; first compound 0.08 µM),relative viability (Sulindac + Decitabine; first compound 0.253 µM),relative viability (Sulindac + Decitabine; first compound 0.8 µM),relative viability (Sulindac + Decitabine; first compound 2.53 µM),relative viability (Sulindac + Decitabine; first compound 8 µM)
201T,0.647,0.628,0.868,0.661,0.596,0.715,0.563,0.305,0.284,0.329,0.325,0.339,0.323,0.366,0.879,0.874,0.818,0.848,0.928
A549,,,,,,,,,,,,,,,0.262,0.247,,0.29,0.232
A-427,0.742,0.692,1.01,0.727,0.808,0.747,0.773,0.58,0.382,1.01,1,0.816,0.956,1.1,0.469,0.521,0.552,0.52,0.6
ABC-1,1.16,,0.636,0.682,0.751,,,,,,,,,,1.04,1.09,1.02,0.821,1.16
BEN,0.728,0.727,0.598,0.604,0.776,0.934,0.93,0.946,0.938,0.816,0.757,0.698,0.706,0.998,0.745,0.845,0.697,0.685,0.814
CAL-12T,0.586,0.717,0.497,0.622,0.708,0.424,0.393,0.33,0.299,1.18,1.1,1.24,1.14,1.44,,,,,
COR-L23,,,,,,0.585,0.631,0.359,0.275,0.177,0.202,0.206,0.192,0.204,0.436,0.446,0.425,0.421,0.526
COR-L 105,,,,,,0.458,0.505,0.408,0.393,1.31,1.14,0.979,1.21,1.2,0.648,0.698,0.621,0.538,0.769
ChaGo-K-1,0.949,0.878,0.803,0.932,0.906,0.934,0.796,0.691,0.499,0.269,0.247,0.302,0.262,0.275,0.601,0.484,0.466,0.515,0.523
EKVX,0.755,0.902,0.571,0.763,0.809,0.326,,0.187,0.148,0.471,0.421,0.323,0.423,0.433,0.312,0.316,0.305,0.341,0.352
EMC-BAC-2,1.22,1.2,0.849,1.04,1.35,0.934,1.05,0.914,0.879,0.429,0.441,0.408,0.451,0.466,0.994,1,0.888,0.934,1.08
EPLC-272H,0.432,,0.53,0.155,0.263,0.263,0.262,0.242,0.198,0.274,0.326,0.465,0.278,0.347,0.313,,0.301,0.369,0.428
H3255,0.884,0.931,0.627,0.867,1.11,0.664,0.716,0.687,0.567,0.592,0.573,0.549,0.567,0.568,0.577,0.662,0.503,0.566,0.615
HARA,0.339,0.392,0.288,0.294,0.307,0.852,0.625,0.856,0.644,0.237,0.257,0.242,0.239,0.288,0.704,0.492,0.398,0.46,0.521
HCC-15,1.11,1.44,0.883,1.23,1.16,0.321,0.365,0.34,0.284,0.213,0.223,0.209,0.22,0.235,0.708,0.625,0.548,0.543,0.661
HCC-44,1.04,1.01,1.09,0.979,0.942,1.09,1,0.692,0.599,0.663,0.695,0.667,0.632,0.646,0.976,0.909,0.871,0.918,0.961
HCC-78,0.614,0.6,0.557,0.599,0.722,1.01,0.717,0.435,0.297,0.923,0.878,0.751,0.924,0.953,0.652,0.672,0.597,0.653,0.648
HCC-366,0.284,0.257,,0.359,0.265,0.332,0.238,0.14,0.0725,0.205,0.183,,0.14,0.172,0.388,0.317,,0.334,0.412
HCC-827,0.218,0.222,0.198,0.204,0.244,0.407,0.544,0.425,0.276,0.286,0.282,0.249,0.241,0.26,0.342,0.31,0.328,0.332,0.291
HOP-62,0.577,0.565,0.556,0.717,0.953,0.362,0.417,0.392,0.357,0.412,0.27,0.31,0.258,0.389,0.214,0.222,0.229,0.217,0.246

Cell Line,relative viability (Sulindac + AZD7762; first compound 0.08 µM),relative viability (Sulindac + AZD7762; first compound 0.253 µM),relative viability (Sulindac + AZD7762; first compound 0.8 µM),relative viability (Sulindac + AZD7762; first compound 2.53 µM),relative viability (Sulindac + AZD7762; first compound 8 µM),relative viability ([1]; first compound 0.02 µM),relative viability ([1]; first compound 0.2 µM),relative viability ([1]; first compound 0.6325 µM),relative viability ([1]; first compound 2 µM),relative viability (Sulindac + Pemetrexed; first compound 0.08 µM),relative viability (Sulindac + Pemetrexed; first compound 0.253 µM),relative viability (Sulindac + Pemetrexed; first compound 0.8 µM),relative viability (Sulindac + Pemetrexed; first compound 2.53 µM),relative viability (Sulindac + Pemetrexed; first compound 8 µM),relative viability (Sulindac + Decitabine; first compound 0.08 µM),relative viability (Sulindac + Decitabine; first compound 0.253 µM),relative viability (Sulindac + Decitabine; first compound 0.8 µM),relative viability (Sulindac + Decitabine; first compound 2.53 µM),relative viability (Sulindac + Decitabine; first compound 8 µM)
LC-2-ad,0.972,0.906,0.701,0.815,0.944,1.02,0.894,0.552,0.349,0.29,0.27,0.273,0.263,0.254,0.954,0.945,0.57,0.823,0.9
LCLC-97TM1,0.274,0.377,0.171,,0.232,0.181,0.203,0.209,0.188,0.205,0.178,0.147,0.177,0.198,0.208,0.263,0.225,0.247,0.232
LCLC-103H,0.88,0.799,0.708,0.786,0.91,0.733,0.671,0.598,0.566,0.458,0.45,0.505,0.44,0.491,0.748,0.787,0.738,0.661,0.729
LK-2,0.456,0.469,0.318,0.465,0.414,0.713,0.769,0.633,0.453,0.315,0.29,0.228,0.221,0.293,0.334,0.361,0.277,0.239,0.306
LOU-NH91,0.781,0.809,0.627,0.742,0.817,0.814,0.871,0.818,0.596,0.305,0.358,0.413,0.423,0.374,0.776,0.8,0.715,0.798,0.873
LU99A,0.324,0.467,0.433,0.327,0.404,0.655,0.559,0.374,0.268,0.181,0.159,0.214,0.193,0.179,1.05,0.806,0.86,0.782,1.17
LXF-289,1.15,1.15,0.987,1.21,1.24,0.674,0.591,0.346,0.33,0.99,0.876,0.806,0.9,0.942,0.404,0.416,0.372,0.381,0.452
NCI-H23,0.294,0.22,0.273,0.256,0.232,0.483,0.331,0.285,0.211,0.768,0.683,0.237,0.7,0.692,0.298,0.331,0.319,0.324,0.319
NCI-H520,,,,,,0.624,0.666,0.439,0.311,0.893,0.613,0.488,0.642,0.813,0.516,0.568,0.467,0.431,0.505
NCI-H661,,,,,,0.63,0.67,0.481,0.567,0.953,0.931,0.869,0.922,0.981,0.648,0.544,0.523,0.574,0.609
NCI-H727,0.575,0.643,0.473,0.582,0.616,0.361,0.384,0.363,0.389,,,,,,0.965,1.02,0.874,0.866,0.957
NCI-H1563,,,,,,,,,,0.736,0.748,0.683,0.758,0.945,,,,,
NCI-H1650,,,,,,0.745,0.532,0.33,0.254,0.443,0.391,0.349,0.377,0.385,0.4,0.495,0.421,0.378,0.473
NCI-H1703,0.129,0.14,,0.111,0.17,,,,,,,,,,,,,,
NCI-H2009,,,,,,0.255,0.271,0.247,0.215,1.07,1.02,1.03,1.01,1.25,0.455,0.397,0.371,0.362,0.359
NCI-H2023,,,,,,0.472,0.21,0.133,0.0877,0.267,0.226,0.186,0.196,0.244,0.233,0.234,0.203,0.206,0.254
NCI-H2228,,,,,,0.628,0.685,0.441,0.326,0.376,0.445,0.289,0.371,0.319,,,,,
SK-LU-1,,,,,,0.458,0.598,0.435,0.464,1.13,1.05,0.821,1.02,1.02,0.691,0.642,0.53,0.647,0.673
SK-MES-1,,,,,,0.496,0.552,0.381,0.352,1.12,0.99,1.03,1.03,1.06,0.378,0.418,0.304,0.436,0.386
SW 1573,,,,,,0.576,0.631,0.497,0.306,0.91,0.887,0.737,0.754,0.9,0.688,0.538,0.443,0.368,0.641

# Reference: the supplement of paper PMC10307832
